# Laboratory results: ChEMBL document CHEMBL1255181, “Synthesis and in vitro evaluation of N-alkyl-7-methoxytacrine hydrochlorides as potential cholinesterase inhibitors in Alzheimer disease” (Bioorg Med Chem Lett, 2010)
# pIC50: −log10 of the molar value. Calls of active or inactive are those of the source. The rule behind the calls is not given here.
# Columns and labels:
# Cholinesterase [1] = target: T1, Cholinesterase (Homo sapiens, UniProt P06276); assay: Inhibition of human plasmatic BChE at 1 mM to 0.1 nM after 5 mins; format: cell-free; conditions: Plasma
# T1 sequence (P06276 whole entry): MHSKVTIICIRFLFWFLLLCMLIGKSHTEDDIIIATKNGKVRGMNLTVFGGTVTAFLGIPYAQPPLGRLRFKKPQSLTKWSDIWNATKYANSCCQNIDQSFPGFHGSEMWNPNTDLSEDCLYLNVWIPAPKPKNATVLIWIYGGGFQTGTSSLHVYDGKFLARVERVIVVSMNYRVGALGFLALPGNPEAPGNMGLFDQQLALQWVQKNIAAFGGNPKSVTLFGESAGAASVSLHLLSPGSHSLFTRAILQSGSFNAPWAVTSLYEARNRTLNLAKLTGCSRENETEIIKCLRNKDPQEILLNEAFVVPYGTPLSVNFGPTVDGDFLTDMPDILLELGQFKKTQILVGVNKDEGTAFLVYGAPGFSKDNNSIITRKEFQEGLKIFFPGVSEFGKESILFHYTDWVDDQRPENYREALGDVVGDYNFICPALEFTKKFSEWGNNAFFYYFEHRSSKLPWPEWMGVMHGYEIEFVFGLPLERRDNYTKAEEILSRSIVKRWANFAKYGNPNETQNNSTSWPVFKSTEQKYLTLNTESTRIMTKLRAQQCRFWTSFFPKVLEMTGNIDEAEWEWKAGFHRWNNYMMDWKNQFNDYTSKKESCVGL
# Cholinesterase [2] = target: T1, Cholinesterase
# Description: Inhibition of human plasmatic BChE after 5 mins
# Acetylcholinesterase = Acetylcholinesterase (Homo sapiens, UniProt P22303)
# Acetylcholinesterase, sequence (P22303 whole entry): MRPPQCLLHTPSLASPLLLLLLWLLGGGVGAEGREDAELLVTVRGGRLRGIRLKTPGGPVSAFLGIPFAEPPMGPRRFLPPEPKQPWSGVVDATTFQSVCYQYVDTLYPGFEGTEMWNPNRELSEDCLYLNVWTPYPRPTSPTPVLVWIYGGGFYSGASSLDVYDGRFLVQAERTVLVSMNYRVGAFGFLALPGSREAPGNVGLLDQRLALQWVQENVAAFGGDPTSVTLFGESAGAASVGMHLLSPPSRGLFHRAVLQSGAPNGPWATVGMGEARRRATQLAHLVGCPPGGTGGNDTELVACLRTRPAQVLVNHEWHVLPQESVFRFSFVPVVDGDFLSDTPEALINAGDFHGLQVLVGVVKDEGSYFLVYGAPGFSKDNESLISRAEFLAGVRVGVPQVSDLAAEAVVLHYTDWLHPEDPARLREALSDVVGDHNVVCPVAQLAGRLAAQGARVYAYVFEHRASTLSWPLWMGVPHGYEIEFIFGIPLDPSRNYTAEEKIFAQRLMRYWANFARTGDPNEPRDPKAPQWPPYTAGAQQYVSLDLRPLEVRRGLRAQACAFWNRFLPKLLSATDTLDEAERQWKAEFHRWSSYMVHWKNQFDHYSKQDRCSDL
# Description: Inhibition of human recombinant AChE after 5 mins
SMILES,inhibition (Cholinesterase [1]),pIC50 (Cholinesterase [2]),pIC50 (Acetylcholinesterase)
CCCCCCCCCCNc1c2c(nc3ccc(OC)cc13)CCCC2,inactive,,
CCCCCCNc1c2c(nc3ccc(OC)cc13)CCCC2,,6.00,7.00
CCCCCCCCCCCCCCCNc1c2c(nc3ccc(OC)cc13)CCCC2,inactive,,
CCNc1c2c(nc3ccc(OC)cc13)CCCC2,,4.01,4.18
CCCNc1c2c(nc3ccc(OC)cc13)CCCC2,,4.15,5.04
CCCCCCCCCCCCCNc1c2c(nc3ccc(OC)cc13)CCCC2,inactive,,4.00
CCCCCCCCCCCCNc1c2c(nc3ccc(OC)cc13)CCCC2,inactive,,6.00
CCCCCCCCCCCNc1c2c(nc3ccc(OC)cc13)CCCC2,inactive,,
CCCCCCCCCCCCCCNc1c2c(nc3ccc(OC)cc13)CCCC2,inactive,,4.34
CCCCCCCCNc1c2c(nc3ccc(OC)cc13)CCCC2,,6.92,6.44
CCCCNc1c2c(nc3ccc(OC)cc13)CCCC2,,4.19,4.68
CCCCCCCCCNc1c2c(nc3ccc(OC)cc13)CCCC2,,6.44,5.80
CCCCCNc1c2c(nc3ccc(OC)cc13)CCCC2,,4.80,5.17
CCCCCCCNc1c2c(nc3ccc(OC)cc13)CCCC2,,7.40,6.57
